{"source": "patent US20110091570A1", "about": "“Compositions and Devices for Antisepsis and Anticoagulation” (priority 2008, published 2011)", "key": {"[1]": {"test_system": "Pseudomonas aeruginosa", "assay": "Bactericidal activity of NCT without and with heparin (CFU counts)", "type": "cell-based"}, "[2]": {"test_system": "Staphylococcus aureus, ATCC 25923", "assay": "Bactericidal activity of NCT with heparin in human whole blood", "type": "cell-based", "conditions": "37° C.", "procedure": "FIG. 10 presents a plot of bactericidal activity of 1% NCT with 125 IE/mL heparin in human blood against Staphylococcus aureus (ATCC 25923) at […] and 37° C. Mean values±standard error of the mean of three independent experiments. P<0.01 between NCT and control samples.\n(§1) Bacteria (Staphylococcus aureus, ATCC 25923 and Escherichia coli, ATCC 11229) grown in tryptic soy broth overnight were washed twice in saline and suspended in human whole blood containing 125 IE/mL heparin. Different volumes of a saline solution of NCT sodium salt were added to the suspension so that the test samples contained 10%, 25%, 50%, and 75% blood. In addition, 100% blood plus 125 IE/mL heparin was tested at which NCT was directly dissolved in blood. The final NCT concentration after mixing blood and NCT solutions was 1% in all samples. Controls contained 100% blood plus 125 IE/mL heparin and 10%, 25%, 50% and 75% blood, respectively, in saline, plus 125 IE/mL heparin without NCT. All of the solutions were incubated at 37° C. and pH 7.36-7.44 (the pH of blood). After 1, 3, 5, 10, 15, 30, 45 and 60 minutes, aliquots of 100 μL were removed and diluted tenfold or 100-fold in 0.6% sodium thiosulfate solution to inactivate the NCT. Aliquots (50 μL) of these dilutions were spread on tryptic soy agar plates. The plates were incubated at 37° C. and colony forming units of bacteria were counted after 24 and 48 hours. […]"}, "[3]": {"test_system": "Escherichia coli, ATCC 11229", "assay": "Bactericidal activity of NCT with heparin in human whole blood", "type": "cell-based", "conditions": "37° C.", "procedure": "FIG. 11 presents a plot of bactericidal activity of 1% NCT with 125 IE/mL heparin in human blood against Escherichia coli (ATCC 11229) at pH 7.1 and 37° C. Mean values±standard error of the mean of three independent experiments. P<0.01 between NCT and control samples.\nas §1"}, "[4]": {"test_system": "citrate blood", "assay": "Prothrombin time (PT), Thromborel S test", "type": "biochemical, human", "conditions": "for PT (%): Example 6, single volunteer; for Prothrombin time (PT) / Prothrombin time (PT), mean value: Example 7; for Prothrombin time (PT): individual subjects 1-11; for Prothrombin time (PT), mean value: mean of 11 subjects", "procedure": "Whole blood was taken from volunteers and enriched with trisodium citrate (0.3 mL of a 0.106 molar solution per 3 mL whole blood) (S-Monovette®, Sarstedt, Nümbrecht, Germany). Routine coagulation tests were performed on the following samples:\nThe following commercial coagulation tests were performed according to the prescription of the manufacturer: prothrombin time (PT) was determined using Thromborel® S test (Dade Behring GmbH, Marburg, Germany); activated partial thromboplastin time (aPTT) was determined using Pathromtin* SL test (Dade Behring GmbH, Marburg, Germany); and thrombin time (TT) was determined using BC Thrombin Reagent test (Dade Behring GmbH, Marburg, Germany).\nWhole blood was taken from a single volunteer and enriched with trisodium citrate (0.3 mL of a 0.106 molar solution per 3 mL whole blood) (S-Monovette®, Sarstedt, Nümbrecht, Germany). Portions of 1.8 mL citrate blood were mixed with 0.2 mL NCT in 0.9% saline. The following final (after dilution in blood) NCT concentrations were tested separately: 1% (55 mM); 0.5% (27.5 mM); 0.25% (13.75 mM); 0.1% (5.5 mM); 0.05% (2.75 mM); 0.025% (1.375 mM); and 0.01% (0.55 mM). A control without NCT was performed in parallel. The following commercial coagulation tests were performed according to the prescription of the manufacturer: prothrombin time (PT) was determined using Thromborel® S test (Dade Behring GmbH, Marburg, Germany), activated partial thromboplastin time (aPTT) was determined using Pathromtin* SL test (Dade Behring GmbH, Marburg, Germany); thrombin time (TT) was determined using BC Thrombin Reagent test (Dade Behring GmbH, Marburg, Germany); and fibrinogen was determined using Multifibren* U test (Dade Behring GmbH, Marburg, Germany).\n(§2) Whole blood was taken from 11 volunteers and enriched with trisodium citrate (0.3 mL of a 0.106 molar solution per 3 mL whole blood) (S-Monovette®, Sarstedt, Nümbrecht, Germany). Commercial coagulation tests (as described in Example 6) were performed with the following samples: […]"}, "[5]": {"test_system": "Antithrombin III", "assay": "Antithrombin III in citrate blood", "type": "biochemical, human", "conditions": "Example 7; for Antithrombin III: individual subjects 1-11; for Antithrombin III, mean value: mean of 11 subjects", "procedure": "as §2"}, "[6]": {"test_system": "omniresistant Pseudomonas aeruginosa", "conditions": "NCT irrigations, three patients [Ref 18]; cited from earlier work"}, "[7]": {"test_system": "mice", "conditions": "transtympanal injection of 0.1%, 1%, and 10% NCT, mice [Ref. 19]; cited from earlier work"}, "[8]": {"test_system": "Staphylococcus aureus", "conditions": "local administration, mouse model [Ref 21]; cited from earlier work"}, "[9]": {"conditions": "1% NCT dissolved in 100% blood plus 125 IE/mL heparin"}, "[10]": {"conditions": "1% NCT in 10%, 25%, 50% and 75% blood plus 125 IE/mL heparin"}}, "note": "Values joined by “and” are separate entries in the source; they are usually repeats but may differ in a detail not shown here. Identical values can stand only once.", "data": [{"molecule": "O=S(=O)(O)CCNCl", "note": "[NCT, N-chlorotaurine]", "values": [{"measurement": "influence of heparin on the killing of bacteria", "setting": "[1]; 0.1% NCT, virtually identical experiments", "value": "no statistically significant influence of heparin on the killing of bacteria"}, {"measurement": "killing activity of NCT with vs without heparin", "setting": "[1]; 1% NCT, 125 IE/mL heparin, pH 7.1, 37° C., 1-10 min", "value": "no difference in the killing activity"}, {"measurement": "bactericidal activity in blood", "setting": "[2]; [9]", "value": "no significant bactericidal activity was detected"}, {"measurement": "bactericidal activity in blood", "setting": "[2]; [10]", "value": "demonstrated bactericidal activity"}, {"measurement": "bactericidal activity in blood", "setting": "[3]; [9]", "value": "no significant bactericidal activity was detected"}, {"measurement": "bactericidal activity in blood", "setting": "[3]; [10]", "value": "demonstrated bactericidal activity"}, {"measurement": "prothrombin time", "setting": "[4]; Example 5, 1% NCT final concentration in citrate blood", "value": "above the test limits"}, {"measurement": "PT (%)", "setting": "[4]; 0.01% (0.55 mM) NCT final", "value": 91.4, "unit": "%"}, {"measurement": "PT (%)", "setting": "[4]; 0.025% (1.375 mM) NCT final", "value": 70.6, "unit": "%"}, {"measurement": "PT (%)", "setting": "[4]; 0.05% (2.75 mM) NCT final", "value": 33.4, "unit": "%"}, {"measurement": "PT (%)", "setting": "[4]; 0.1% (5.5 mM) NCT final", "value": "<limit"}, {"measurement": "PT (%)", "setting": "[4]; 0.25% (13.75 mM) NCT final", "value": "<limit"}, {"measurement": "PT (%)", "setting": "[4]; 0.5% (27.5 mM) NCT final", "value": "<limit"}, {"measurement": "PT (%)", "setting": "[4]; 1% (55 mM) NCT final", "value": "<limit"}, {"measurement": "Prothrombin time (PT)", "setting": "[4]; 0.01% NCT", "value": "70% and 59% and 95% and 62% and 88% and 61% and 86% and 72% and 77% and 74% and 79%"}, {"measurement": "Prothrombin time (PT), mean value", "setting": "[4]; 0.01% NCT", "value": 74.8, "unit": "%"}, {"measurement": "Prothrombin time (PT)", "setting": "[4]; 0.025% NCT", "value": "28% and 20% and 50% and 10% and 21% and 16% (2×) and 25% and 36% and 24% and 32%"}, {"measurement": "Prothrombin time (PT), mean value", "setting": "[4]; 0.025% NCT", "value": 25.3, "unit": "%"}, {"measurement": "Antithrombin III", "setting": "[5]; 0.01% NCT", "value": "92% and 79% and 101% and 85% and 82% and 81% and 94% and 75% and 95% and 80% and 84%"}, {"measurement": "Antithrombin III, mean value", "setting": "[5]; 0.01% NCT", "value": 86.2, "unit": "%"}, {"measurement": "Antithrombin III", "setting": "[5]; 0.025% NCT", "value": "90% and 81% and 101% and 79% (3×) and 80% and 87% and 73% and 94% and 78%"}, {"measurement": "Antithrombin III, mean value", "setting": "[5]; 0.025% NCT", "value": 83.7, "unit": "%"}, {"measurement": "eradication of bacteria from the urinary bladder", "setting": "[6]", "value": "possible to eradicate bacteria from the urinary bladder"}, {"measurement": "damage of the inner ear", "setting": "[7]", "value": "did not cause damage of the inner ear"}, {"measurement": "effect on septic arthritis", "setting": "[8]", "value": "inhibited septic arthritis"}]}]}
